Experimental data published in PubChem BioAssay AID248 (DTP/NCI, 2004).
Inconclusive results and toxic doses are left out. Rule as the data show it: active = T/C of 150% or more; inactive = T/C below 125%.

System: L1210 leukemia ip in BDF1 mice, survival T/C
Experiment: NCI In Vivo Anticancer Drug Screen. Data for tumor model L1210 Leukemia (intraperitoneal) in B6D2F1 (BDF1) mice
Conditions: endpoint: mean survival time, higher = longer survival
How it was run: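 In this screen, tumor-bearing mice given compound are compared to those given vehicle, and their survival values are reported as a treated-to-control quotient.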

[1] = dose: 100.0 mg/kg/injection, schedule: Q01DX001 (ip), vehicle: saline
[2] = dose: 200.0 mg/kg/injection, schedule: Q01DX001 (ip), vehicle: saline
[3] = dose: 400.0 mg/kg/injection, schedule: Q01DX001 (ip), vehicle: saline
[4] = dose: 100.0 mg/kg/injection, schedule: Q01DX001 (ip), vehicle: carboxymethylcellulose (CMC)
[5] = dose: 200.0 mg/kg/injection, schedule: Q01DX001 (ip), vehicle: carboxymethylcellulose (CMC)
[6] = dose: 400.0 mg/kg/injection, schedule: Q01DX001 (ip), vehicle: carboxymethylcellulose (CMC)
[7] = dose: 100.0 mg/kg/injection, schedule: Q01DX009 (ip), vehicle: Klucel (hydroxypropylcellulose) (HPC)
[8] = dose: 200.0 mg/kg/injection, schedule: Q01DX009 (ip), vehicle: Klucel (hydroxypropylcellulose) (HPC)
[9] = dose: 400.0 mg/kg/injection, schedule: Q01DX009 (ip), vehicle: Klucel (hydroxypropylcellulose) (HPC)
[10] = dose: 100.0 mg/kg/injection, schedule: Q04DX003 (ip), vehicle: Klucel (hydroxypropylcellulose) (HPC)
[11] = dose: 200.0 mg/kg/injection, schedule: Q04DX003 (ip), vehicle: Klucel (hydroxypropylcellulose) (HPC)
[12] = dose: 400.0 mg/kg/injection, schedule: Q04DX003 (ip), vehicle: Klucel (hydroxypropylcellulose) (HPC)

Measured: T/C

CN(C)C=NC1CCC(C(C)(C)C)CC1 (stereo not given)
inactive: dose: 12.5 mg/kg/injection, schedule: Q01DX009 (ip), vehicle: Klucel (hydroxypropylcellulose) (HPC) 96 % of control | dose: 12.5 mg/kg/injection, schedule: Q04DX003 (ip), vehicle: Klucel (hydroxypropylcellulose) (HPC) 103 % of control | dose: 25.0 mg/kg/injection, schedule: Q01DX009 (ip), vehicle: Klucel (hydroxypropylcellulose) (HPC) 102 % of control | dose: 25.0 mg/kg/injection, schedule: Q04DX003 (ip), vehicle: Klucel (hydroxypropylcellulose) (HPC) 95 % of control | dose: 50.0 mg/kg/injection, schedule: Q04DX003 (ip), vehicle: Klucel (hydroxypropylcellulose) (HPC) 93 % of control

CC12CCC(=O)OC1(C)OC(=O)CC2 (stereo not given)
inactive: dose: 100.0 mg/kg/injection, schedule: Q01DX009 (ip), vehicle: saline 94 % of control | dose: 200.0 mg/kg/injection, schedule: Q01DX009 (ip), vehicle: saline 100 % of control | dose: 400.0 mg/kg/injection, schedule: Q01DX009 (ip), vehicle: saline 95 % of control

Cc1cn(C2CCCO2)c(=O)nc1N (stereo not given)
inactive: dose: 50.0 mg/kg/injection, schedule: Q01DX001 (ip), vehicle: saline 103 % of control | [1] 97 % of control | [2] 95 % of control | [3] 101 % of control

NCC(O)c1cccc(O)c1 (stereo not given)
inactive: dose: 50.0 mg/kg/injection, schedule: Q01DX001 (ip), vehicle: carboxymethylcellulose (CMC) 105 % of control | [4] 94 % of control | [5] 100 % of control | [6] 100 % of control

COc1cc(N(CCCl)CCCl)ccc1C=Nc1cc(Cl)ccc1-n1ccnc1
inactive: dose: 100.0 mg/kg/injection, schedule: Q04DX002 (ip), vehicle: Klucel (hydroxypropylcellulose) (HPC) 95 % of control | dose: 200.0 mg/kg/injection, schedule: Q04DX002 (ip), vehicle: Klucel (hydroxypropylcellulose) (HPC) 95 % of control | dose: 400.0 mg/kg/injection, schedule: Q04DX002 (ip), vehicle: Klucel (hydroxypropylcellulose) (HPC) 87 % of control

CSc1ccc(C(=O)c2ccc(SC)cc2)cc1
inactive: [7] 98 % of control | [8] 98 % of control | [9] 95 % of control

O=C(O)CSCCc1ccccc1
inactive: [7] 105 % of control | [10] 106 % of control | [8] 94 % of control | [11] 105 % of control | [9] 100 % of control | [12] 100 % of control

Cc1cc(C)c(C(=O)CBr)c(C)c1
inactive: [4] 112 % of control | [1] 101 % of control | [5] 106 % of control | [2] 101 % of control | [6] 101 % of control | [3] 110 % of control

O=[N+]([O-])c1cccc([I+]c2cccc([N+](=O)[O-])c2)c1
inactive: dose: 100.0 mg/kg/injection, schedule: Q04DX002 (ip), vehicle: saline with Tween-80 100 % of control | [10] 96 % of control | dose: 200.0 mg/kg/injection, schedule: Q04DX002 (ip), vehicle: saline with Tween-80 92 % of control | [11] 104 % of control | dose: 400.0 mg/kg/injection, schedule: Q04DX002 (ip), vehicle: saline with Tween-80 100 % of control | [12] 91 % of control
